The test system of this assay is HCV 1b-Con1 replicon. Description: HCV 1b-Con1 replicon assay in the presence of 5% FBS. In kind it is cell-based. To be noted: Hepatitis C virus. On the technique in general: In antiviral work, replicon cells carry a viral genome segment that copies itself.

The structures appear in SMILES notation.

The EC50 is the midpoint of the concentration-response curve. With `COC(=O)N[C@H](C(=O)N1CCC[C@H]1c1nc2cc([C@H]3CC[C@H](c4ccc5[nH]c([C@@H]6CCCN6C(=O)[C@@H](NC(=O)OC)C(C)C)nc5c4)N3c3ccc(N4CCC(c5ccccc5)CC4)cc3)ccc2[nH]1)C(C)C` [Example 4.25, methyl {(2S)-1-[(2S)-2-(5-{(2R,5R)-5-{2-[(2S)-1-{(2S)-2-[(methoxycarbonyl)amino]-3-methylbutanoyl}pyrrolidin-2-yl]-1H-benzimidazol-5-yl}-1-[4-(4-phenylpiperidin-1-yl)phenyl]pyrrolidin-2-yl}-1H-benzimidazol-2-yl)pyrrolidin-1-yl]-3-methyl-1-oxobutan-2-yl}carbamate], the concentration giving a half-maximal response (EC50) is 0.1 to 1 nM.

For the compound `COC(=O)N[C@H](C(=O)N1CCC[C@H]1c1nc2cc([C@H]3CC[C@H](c4cc5nc([C@@H]6CCCN6C(=O)[C@@H](NC(=O)OC)C(C)C)[nH]c5cc4F)N3c3cc(F)c(N4CCC(CCCc5ccccc5)CC4)c(F)c3)c(F)cc2[nH]1)C(C)C` [Example 4.26, methyl {(2S)-1-[(2S)-2-{5-[(2R,5R)-1-{3,5-difluoro-4-[4-(3-phenylpropyl)piperidin-1-yl]phenyl}-5-{6-fluoro-2-[(2S)-1-{(2S)-2-[(methoxycarbonyl)amino]-3-methylbutanoyl}pyrrolidin-2-yl]-1H-benzimidazol-5-yl}pyrrolidin-2-yl]-6-fluoro-1H-benzimidazol-2-yl}pyrrolidin-1-yl]-3-methyl-1-oxobutan-2-yl}carbamate], the concentration for a half-maximal effect (EC50) was under 0.1 nM.

`COC(=O)N[C@H](C(=O)N1CCC[C@H]1c1nc2cc([C@H]3CC[C@H](c4cc5nc([C@@H]6CCCN6C(=O)[C@@H](NC(=O)OC)C(C)C)[nH]c5cc4F)N3c3cc(F)c(N4CCC(C(C)(C)C)CC4)c(F)c3)c(F)cc2[nH]1)C(C)C` [Example 4.27, methyl {(2S)-1-[(2S)-2-{5-[(2R,5R)-1-[4-(4-tert-butylpiperidin-1-yl)-3,5-difluorophenyl]-5-{6-fluoro-2-[(2S)-1-{(2S)-2-[(methoxycarbonyl)amino]-3-methylbutanoyl}pyrrolidin-2-yl]-1H-benzimidazol-5-yl}pyrrolidin-2-yl]-6-fluoro-1H-benzimidazol-2-yl}pyrrolidin-1-yl]-3-methyl-1-oxobutan-2-yl}carbamate]: the EC50 is under 0.1 nM.

For the compound `COC(=O)N[C@H](C(=O)N1CCC[C@H]1c1nc2cc([C@H]3CC[C@H](c4cc5nc([C@@H]6CCCN6C(=O)[C@@H](NC(=O)OC)C6CCCC6)[nH]c5cc4F)N3c3cc(F)c(N4CCC(C(C)(C)C)CC4)c(F)c3)c(F)cc2[nH]1)C1CCCC1` [Example 4.28, dimethyl ({(2R,5R)-1-[4-(4-tert-butylpiperidin-1-yl)-3,5-difluorophenyl]pyrrolidine-2,5-diyl}bis{(6-fluoro-1H-benzimidazole-5,2-diyl)(2S)pyrrolidine-2,1-diyl[(1S)-1-cyclopentyl-2-oxoethane-2,1-diyl]})biscarbamate], the EC50 was under 0.1 nM.

For `COC(=O)N[C@H](C(=O)N1CCC[C@H]1c1nc2cc([C@H]3CC[C@H](c4cc5nc([C@@H]6CCCN6C(=O)[C@@H](NC(=O)OC)[C@@H](C)OC(C)(C)C)[nH]c5cc4F)N3c3cc(F)c(N4CCC(C(C)(C)C)CC4)c(F)c3)c(F)cc2[nH]1)[C@@H](C)OC(C)(C)C` [Example 4.29, methyl {(2S,3R)-3-tert-butoxy-1-[(2S)-2-(5-{(2R,5R)-5-{2-[(2S)-1-{(2S,3R)-3-tert-butoxy-2-[(methoxycarbonyl)amino]butanoyl}pyrrolidin-2-yl]-6-fluoro-1H-benzimidazol-5-yl}-1-[4-(4-tert-butylpiperidin-1-yl)-3,5-difluorophenyl]pyrrolidin-2-yl}-6-fluoro-1H-benzimidazol-2-yl)pyrrolidin-1-yl]-1-oxobutan-2-yl}carbamate], the EC50 is under 0.1 nM.

Turning to `COC(=O)N[C@H](C(=O)N1CCC[C@H]1c1nc2cc([C@H]3CC[C@H](c4cc5nc([C@@H]6CCCN6C(=O)[C@@H](NC(=O)OC)C(C)C)[nH]c5cc4F)N3c3cc(F)c(N4CCC(c5ccc6ccccc6c5)CC4)c(F)c3)c(F)cc2[nH]1)C(C)C` [Example 4.30, methyl {(2S)-1-[(2S)-2-{5-[(2R,5R)-1-{3,5-difluoro-4-[4-(2-naphthyl)piperidin-1-yl]phenyl}-5-{6-fluoro-2-[(2S)-1-{(2S)-2-[(methoxycarbonyl)amino]-3-methylbutanoyl}pyrrolidin-2-yl]-1H-benzimidazol-5-yl}pyrrolidin-2-yl]-6-fluoro-1H-benzimidazol-2-yl}pyrrolidin-1-yl]-3-methyl-1-oxobutan-2-yl}carbamate], the concentration for a half-maximal effect (EC50) is under 0.1 nM.

Turning to `COC(=O)N[C@H](C(=O)N1CCC[C@H]1c1nc2cc([C@H]3CC[C@H](c4cc5nc([C@@H]6CCCN6C(=O)[C@@H](NC(=O)OC)C(C)C)[nH]c5cc4F)N3c3cc(F)c(N4CCC5(CCc6ccccc65)CC4)c(F)c3)c(F)cc2[nH]1)C(C)C` [Example 4.31, methyl {(2S)-1-[(2S)-2-{5-[(2R,5R)-1-[4-(2,3-dihydro-1′H-spiro[indene-1,4′-piperidin]-1′-yl)-3,5-difluorophenyl]-5-{6-fluoro-2-[(2S)-1-{(2S)-2-[(methoxycarbonyl)amino]-3-methylbutanoyl}pyrrolidin-2-yl]-1H-benzimidazol-5-yl}pyrrolidin-2-yl]-6-fluoro-1H-benzimidazol-2-yl}pyrrolidin-1-yl]-3-methyl-1-oxobutan-2-yl}carbamate], the EC50 was under 0.1 nM.

Take `COC(=O)N[C@H](C(=O)N1CCC[C@H]1c1nc2cc([C@H]3CC[C@H](c4ccc5nc([C@@H]6CCCN6C(=O)[C@@H](NC(=O)OC)C(C)C)[nH]c5c4)N3c3cc(F)c(N4CCCC(c5ccccc5)C4)c(F)c3)ccc2[nH]1)C(C)C` (stereo partly drawn) [Example 4.32, methyl {(2S)-1-[(2S)-2-{5-[(2R,5R)-1-[3,5-difluoro-4-(3-phenylpiperidin-1-yl)phenyl]-5-{2-[(2S)-1-{(2S)-2-[(methoxycarbonyl)amino]-3-methylbutanoyl}pyrrolidin-2-yl]-1H-benzimidazol-6-yl}pyrrolidin-2-yl]-1H-benzimidazol-2-yl}pyrrolidin-1-yl]-3-methyl-1-oxobutan-2-yl}carbamate]: the 50% effective concentration (EC50) is under 0.1 nM.

For the compound `COC(=O)N[C@H](C(=O)N1CCC[C@H]1c1nc2cc([C@H]3CC[C@H](c4ccc5nc([C@@H]6CCCN6C(=O)[C@@H](NC(=O)OC)C(C)C)[nH]c5c4)N3c3cc(F)c(N4CCC(c5ccccc5)C4)c(F)c3)ccc2[nH]1)C(C)C` (stereo partly drawn) [Example 4.33, methyl {(2S)-1-[(2S)-2-{5-[(2R,5R)-1-[3,5-difluoro-4-(3-phenylpyrrolidin-1-yl)phenyl]-5-{2-[(2S)-1-{(2S)-2-[(methoxycarbonyl)amino]-3-methylbutanoyl}pyrrolidin-2-yl]-1H-benzimidazol-6-yl}pyrrolidin-2-yl]-1H-benzimidazol-2-yl}pyrrolidin-1-yl]-3-methyl-1-oxobutan-2-yl}carbamate], the EC50 is under 0.1 nM.

These data come from patent publication US20120220562A1, “Anti-Viral Compounds” (ABBOTT LABAORATORIES, priority 2011, published 2012).
